# Results published in ChEMBL document CHEMBL1201862, “PubChem BioAssay data set” (2004).
#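 Step 1: Grow cells in 96-well plates. Step 2: Expose to compound for 48 hours at 5 concentrations. Step 3: Interpolate endpoints linearly; if unreached, use highest concentration. Abbreviation: GI50, concentration required for 50% inhibition of growth.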 Activity calls are given as the source filed them. No stated cut-off is given here; in the data, active = GI50 up to about 1.1 µM and inactive = higher.
# Columns and labels:
# Test in all cases: DTP human tumour cell line panel, 48 h
# [1] = test system: UO-31
# [2] = test system: HCC 2998
# [3] = test system: RPMI-8226
# [4] = test system: KM12
# [5] = test system: NCI-H226
# [6] = test system: UACC-62
# [7] = test system: PC-3
# [8] = test system: MDA-MB-231
# [9] = test system: M14
# [10] = test system: HOP-92
# [11] = test system: MCF7
# [12] = test system: CAKI-1
# [13] = test system: HCT-15
# [14] = test system: BT-549
# [15] = test system: EKVX
# [16] = test system: MDA-MB-435
# [17] = test system: A549
# [18] = test system: SF-295
# [19] = test system: CCRF-CEM
# [20] = test system: OVCAR-3
# [21] = test system: MDA-N
# [22] = test system: HOP-62
# [23] = test system: NCI/ADR-RES
# [24] = test system: MOLT-4
# [25] = test system: RXF 393
# [26] = test system: SNB-75
# [27] = test system: NCI-H23
# [28] = test system: SW-620
# [29] = test system: SK-OV-3
# [30] = test system: U-251
# [31] = test system: OVCAR-8
# [32] = test system: NCI-H460
# [33] = test system: OVCAR-4
# [34] = test system: OVCAR-5
# [35] = test system: ACHN
# [36] = test system: SR
# [37] = test system: UACC-257
# [38] = test system: SN12C
# [39] = test system: SK-MEL-2
# [40] = test system: HL-60
# [41] = test system: SF-268
# [42] = test system: A498
# [43] = test system: SNB-19
# [44] = test system: SK-MEL-28
# [45] = test system: SF-539
# [46] = test system: TK-10
# [47] = test system: COLO 205
# [48] = test system: SK-MEL-5
# [49] = test system: IGROV-1
# [50] = test system: HT-29
# [51] = test system: HCT-116
# [52] = test system: 786-0
# [53] = test system: K562
# [54] = test system: DU-145
# [55] = test system: T47D
# [56] = test system: LOX IMVI
compound,measurement,setting,value
C[C@H]1C(=O)O[C@@H]1[C@H]1COC(C)(C)O1,GI50,[1],> 100 µM (inactive)
same,GI50,[2],> 100 µM (inactive)
same,GI50,[3],> 100 µM (inactive)
same,GI50,[4],> 100 µM (inactive)
same,GI50,[5],> 100 µM (inactive)
same,GI50,[6],> 100 µM (inactive)
same,GI50,[7],> 100 µM (inactive)
same,GI50,[8],> 100 µM (inactive)
same,GI50,[9],> 100 µM (inactive)
same,GI50,[10],> 100 µM (inactive)
same,GI50,[11],> 100 µM (inactive)
same,GI50,[12],> 100 µM (inactive)
same,GI50,[13],> 100 µM
same,GI50,[14],> 100 µM (inactive)
same,GI50,[15],> 100 µM (inactive)
same,GI50,[16],> 100 µM (inactive)
same,GI50,[17],> 100 µM (inactive)
same,GI50,[18],> 100 µM (inactive)
same,GI50,[19],32.5 µM (inactive)
same,GI50,[20],> 100 µM (inactive)
same,GI50,[21],> 100 µM (inactive)
same,GI50,[22],> 100 µM (inactive)
same,GI50,[23],> 100 µM (inactive)
same,GI50,[24],> 100 µM (inactive)
same,GI50,[25],> 100 µM (inactive)
same,GI50,[26],82 µM (inactive)
same,GI50,[27],> 100 µM (inactive)
same,GI50,[28],> 100 µM (inactive)
same,GI50,[29],> 100 µM (inactive)
same,GI50,[30],> 100 µM (inactive)
same,GI50,[31],> 100 µM (inactive)
same,GI50,[32],> 100 µM (inactive)
same,GI50,[33],> 100 µM (inactive)
same,GI50,[34],> 100 µM (inactive)
same,GI50,[35],> 100 µM (inactive)
same,GI50,[36],> 100 µM (inactive)
same,GI50,[37],> 100 µM (inactive)
same,GI50,[38],> 100 µM (inactive)
same,GI50,[39],> 100 µM (inactive)
same,GI50,[40],0.769 µM (active)
same,GI50,[41],> 100 µM (inactive)
same,GI50,[42],> 100 µM (inactive)
same,GI50,[43],> 100 µM (inactive)
same,GI50,[44],> 100 µM (inactive)
same,GI50,[45],> 100 µM (inactive)
same,GI50,[46],> 100 µM (inactive)
Nc1cc(N2CCOCC2)nc(=O)n1-c1ccccc1,GI50,[1],> 100 µM (inactive)
same,GI50,[2],> 100 µM (inactive)
same,GI50,[3],> 100 µM (inactive)
same,GI50,[47],> 100 µM (inactive)
same,GI50,[48],> 100 µM (inactive)
same,GI50,[4],> 100 µM (inactive)
same,GI50,[5],> 100 µM (inactive)
same,GI50,[49],> 100 µM (inactive)
same,GI50,[6],> 100 µM (inactive)
same,GI50,[7],> 100 µM (inactive)
same,GI50,[50],> 100 µM (inactive)
same,GI50,[9],> 100 µM (inactive)
same,GI50,[10],> 100 µM (inactive)
same,GI50,[51],> 100 µM (inactive)
same,GI50,[11],> 100 µM (inactive)
same,GI50,[12],> 100 µM (inactive)
same,GI50,[13],> 100 µM
same,GI50,[14],> 100 µM (inactive)
same,GI50,[15],> 100 µM (inactive)
same,GI50,[16],> 100 µM (inactive)
same,GI50,[17],> 100 µM (inactive)
same,GI50,[18],> 100 µM (inactive)
same,GI50,[19],> 100 µM (inactive)
same,GI50,[20],> 100 µM (inactive)
same,GI50,[21],> 100 µM (inactive)
same,GI50,[22],> 100 µM (inactive)
same,GI50,[23],> 100 µM (inactive)
same,GI50,[24],> 100 µM (inactive)
same,GI50,[26],> 100 µM (inactive)
same,GI50,[27],> 100 µM (inactive)
same,GI50,[28],> 100 µM (inactive)
same,GI50,[29],> 100 µM (inactive)
same,GI50,[30],> 100 µM (inactive)
same,GI50,[31],> 100 µM (inactive)
same,GI50,[32],> 100 µM (inactive)
same,GI50,[34],> 100 µM (inactive)
same,GI50,[52],> 100 µM (inactive)
same,GI50,[35],> 100 µM (inactive)
same,GI50,[36],> 100 µM (inactive)
same,GI50,[37],> 100 µM (inactive)
same,GI50,[38],> 100 µM (inactive)
same,GI50,[53],> 100 µM (inactive)
same,GI50,[39],> 100 µM (inactive)
same,GI50,[40],21.4 µM (inactive)
same,GI50,[54],> 100 µM (inactive)
same,GI50,[55],> 100 µM (inactive)
same,GI50,[56],> 100 µM (inactive)
same,GI50,[42],> 100 µM (inactive)
same,GI50,[43],> 100 µM (inactive)
same,GI50,[44],> 100 µM (inactive)
same,GI50,[45],> 100 µM (inactive)
